Data on ten compounds can be found in patent US20240327381A1, “Compounds and Compositions for Selective Degradation of Engineered Proteins” (Celgene Corporation, priority 2023, published 2024).

The target in experiment [1] is T1, IKZF1 ZNF2_ZNF3 Q1F degron-tagged CD19 CAR (Homo sapiens, UniProt Q13422, Q146F).
T1 construct: ZNF2_ZNF3 Q1F degron (GERPFFCNQCGASFTQKGNLLRHIKLHSGEKPFKCHLCNYACRRRDALTGHLRTHS); fused on or other part: anti-CD19 scFv, CD28 transmembrane domain, 4-1BB costimulatory domain, CD3 zeta signaling domain (the CAR that carries the degron), and Nluc
T1 sequence (Q13422 whole entry Q146F, the tested form may be a part): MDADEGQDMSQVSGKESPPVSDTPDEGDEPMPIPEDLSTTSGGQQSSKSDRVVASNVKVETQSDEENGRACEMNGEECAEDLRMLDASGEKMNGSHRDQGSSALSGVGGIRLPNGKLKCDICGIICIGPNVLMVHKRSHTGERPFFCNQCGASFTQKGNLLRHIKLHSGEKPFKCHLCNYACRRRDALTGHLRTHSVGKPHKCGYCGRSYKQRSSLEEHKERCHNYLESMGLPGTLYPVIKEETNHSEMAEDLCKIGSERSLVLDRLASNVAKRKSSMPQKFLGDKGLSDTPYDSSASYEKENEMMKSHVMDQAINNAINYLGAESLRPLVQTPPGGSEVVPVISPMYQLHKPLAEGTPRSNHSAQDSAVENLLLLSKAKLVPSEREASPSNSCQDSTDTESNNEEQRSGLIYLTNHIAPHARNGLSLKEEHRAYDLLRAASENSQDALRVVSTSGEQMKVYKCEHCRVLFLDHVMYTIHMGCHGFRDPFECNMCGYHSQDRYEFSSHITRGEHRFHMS
The experiment is described as follows: Degradation of Q1F degron-tagged CD19 CAR in Jurkat cells (flow cytometry of CAR levels). It counts as cell-based. Particulars: for DC50: Jurkat cells expressing CD19 CAR tagged with IKZF1 ZNF2_ZNF3 Q1F, 18 hours at 37° C., CAR levels normalized to untreated cells, read-out: Q1F Jurkat IC50; for Dmax: Ymax is the % protein degraded, Jurkat cells expressing Q1F degron-tagged CD19 CAR, 18 hours, read-out: Q1F Jurkat-YMax. An excerpt: Q1F degron-targeting compounds were screened in Jurkat cells engineered to express a IKZF1 ZNF2_ZNF3 Q1F. The cell line was generated with lentiviral vectors containing CD19 CARs tagged with IKZF1 ZNF2_ZNF3 QIF Nluc, which were transduced into Jurkat cells. The CD19 CAR comprised an anti-CD19 scFv, a CD28 transmembrane domain, a 4-1BB costimulatory domain, a CD3ζ signaling domain, and a ZNF2_ZNF3 Q1F degron (GERPFFCNQCGASFTQKGNLLRHIKLHSGEKPFKCHLCNYACRRRDALTGHLRTHS; SEQ ID NO: 1; Q1F substitution underlined). Transduced cells were treated with a titration of each small molecule or no drug and then incubated at 37° C. for 18 hours. Cells were washed and stained with appropriate staining reagent to measure CAR levels. The cells were incubated at 4° C. in the staining reagents for 20 mins and then washed 3 times before being read on the flow cytometer. CAR levels were normalized to cells that had not been treated with drug. EC50 and Ymin values were calculated using the resulting titration curve. This identified small molecules that potently degraded the Q1F degron-tagged CARs (Table 1).
(§1) To determine the EC50 value of a compound for the degradation of a given substrate (concentration of compound that achieves half the maximum degradation observed), a four-parameter logistic model (sigmoidal dose-response model) (FIT=(A+{(B−A)/1+[(C/x)D]})) where C is the inflection point (EC50), D is the […], and A and B are the low and high limits of the fit, respectively) was used. All substrate degradation curves were processed and evaluated using ActivityBase (IDBS), a data analysis software package. Ymax is the % protein degraded (Ymin=100−Ymax and is minimum percent protein remaining).

Another experiment concerns the target T2, Helios (Homo sapiens, UniProt Q9UKS7).
T2 construct: endogenous in cells; host or cells: Jurkat cells, CRISPR/Cas9 knock-in of HiBit at the IKZF2 locus
The experiment is described as follows: Helios degradation in Jurkat/Helios/HiBit cells (Nano-Glo luminescence). It counts as cell-based. As to conditions: 18 hr, read-out: Helios Jurkat Hibit IC50. The procedure:
For Helios, a stable Jurkat cell line was engineered using CRISPR/Cas9 to insert an in-frame HiBit tag into the carboxy-terminal reading frame of the IKZF2 gene. The sequence of human Helios is shown below:
Test compounds were transferred to 1536 well plates using an acoustic dispenser, and Jurkat/Helios/HiBit cells in DMEM/10% FCS were plated at 10,000 cells/well in a final volume of 5 μL. Cells were incubated at 37 C, 95% RH for 18 hr. Luciferase activity was measured by adding 2 μL/well of Nano-Glo reagent (Promega), incubating at RT for 30 min, and reading luminescence on a microtiter plate reader.
as §1

T2 sequence (Q9UKS7 whole entry): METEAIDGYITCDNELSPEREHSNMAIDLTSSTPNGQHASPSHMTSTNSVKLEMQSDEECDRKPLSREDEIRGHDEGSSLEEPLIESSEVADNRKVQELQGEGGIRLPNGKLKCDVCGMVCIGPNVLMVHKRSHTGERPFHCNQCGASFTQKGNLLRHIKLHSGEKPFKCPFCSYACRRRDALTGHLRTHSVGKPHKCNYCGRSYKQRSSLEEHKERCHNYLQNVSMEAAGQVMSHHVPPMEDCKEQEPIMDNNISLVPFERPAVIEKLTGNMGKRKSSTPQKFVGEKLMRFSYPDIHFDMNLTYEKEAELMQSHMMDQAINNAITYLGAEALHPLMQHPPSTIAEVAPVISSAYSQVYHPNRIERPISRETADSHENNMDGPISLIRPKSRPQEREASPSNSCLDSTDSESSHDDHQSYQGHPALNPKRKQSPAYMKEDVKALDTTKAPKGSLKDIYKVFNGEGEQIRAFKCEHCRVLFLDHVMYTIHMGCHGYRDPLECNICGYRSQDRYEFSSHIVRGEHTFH
T2 sequence (Q96SW2 whole entry, further chain): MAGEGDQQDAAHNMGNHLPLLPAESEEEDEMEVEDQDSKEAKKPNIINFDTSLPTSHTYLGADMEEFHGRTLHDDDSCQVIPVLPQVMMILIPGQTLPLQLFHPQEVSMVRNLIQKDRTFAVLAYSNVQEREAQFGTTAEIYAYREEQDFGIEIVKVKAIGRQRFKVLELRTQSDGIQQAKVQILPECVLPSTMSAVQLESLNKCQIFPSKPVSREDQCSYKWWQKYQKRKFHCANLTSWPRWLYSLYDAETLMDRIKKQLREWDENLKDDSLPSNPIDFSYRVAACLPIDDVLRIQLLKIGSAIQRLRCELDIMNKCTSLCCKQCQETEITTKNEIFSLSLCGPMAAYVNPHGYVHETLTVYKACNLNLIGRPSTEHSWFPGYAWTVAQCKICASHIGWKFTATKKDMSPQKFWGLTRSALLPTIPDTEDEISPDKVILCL
T2 sequence (Q16531 whole entry partner): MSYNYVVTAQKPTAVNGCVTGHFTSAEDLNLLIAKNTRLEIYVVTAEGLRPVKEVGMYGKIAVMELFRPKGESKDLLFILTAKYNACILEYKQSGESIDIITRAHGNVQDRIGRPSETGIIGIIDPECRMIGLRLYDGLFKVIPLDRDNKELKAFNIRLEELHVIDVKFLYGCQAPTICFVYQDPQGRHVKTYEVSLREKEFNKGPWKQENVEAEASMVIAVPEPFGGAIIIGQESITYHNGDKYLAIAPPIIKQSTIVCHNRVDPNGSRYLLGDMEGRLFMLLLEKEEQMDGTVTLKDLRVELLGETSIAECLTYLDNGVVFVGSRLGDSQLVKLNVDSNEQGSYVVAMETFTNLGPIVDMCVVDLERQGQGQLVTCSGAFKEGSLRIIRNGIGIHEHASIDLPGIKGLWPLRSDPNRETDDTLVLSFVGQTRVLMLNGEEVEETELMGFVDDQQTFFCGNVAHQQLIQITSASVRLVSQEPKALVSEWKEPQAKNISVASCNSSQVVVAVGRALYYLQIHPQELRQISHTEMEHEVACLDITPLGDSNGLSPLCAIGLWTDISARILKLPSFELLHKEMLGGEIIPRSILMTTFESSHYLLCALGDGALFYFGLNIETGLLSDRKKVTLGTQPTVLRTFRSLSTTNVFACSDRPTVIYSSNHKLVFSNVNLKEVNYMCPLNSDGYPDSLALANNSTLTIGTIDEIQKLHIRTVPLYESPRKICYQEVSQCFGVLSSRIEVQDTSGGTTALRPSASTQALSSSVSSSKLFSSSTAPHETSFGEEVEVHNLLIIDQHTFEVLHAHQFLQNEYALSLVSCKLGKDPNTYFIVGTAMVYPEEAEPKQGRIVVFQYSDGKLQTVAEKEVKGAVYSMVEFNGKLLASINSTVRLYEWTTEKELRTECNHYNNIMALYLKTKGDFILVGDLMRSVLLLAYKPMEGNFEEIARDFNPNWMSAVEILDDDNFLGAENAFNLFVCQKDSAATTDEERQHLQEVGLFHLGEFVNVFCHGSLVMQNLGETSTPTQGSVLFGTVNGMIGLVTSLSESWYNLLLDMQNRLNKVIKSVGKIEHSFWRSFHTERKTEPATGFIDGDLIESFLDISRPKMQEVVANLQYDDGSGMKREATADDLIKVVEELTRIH

In the case of `Cn1cncc1CN1CCC(c2c(F)cc3c(c2F)CN(C2CCC(=O)NC2=O)C3=O)CC1` (stereo not drawn) [Compound 1, 3-(4,6-difluoro-5-(1-((1-methyl-1H-imidazol-5-yl)methyl)piperidin-4-yl)-1-oxoisoindolin-2-yl)piperidine-2,6-dione], the results for the DC50 (in experiment [1]; at Helios) were 10.4 nM and at least 10000 nM, respectively. The Dmax in experiment [1] came to 85.3%.
For `CN(CCN1CCC(c2cc3c(cc2F)C(=O)N(C2CCC(=O)NC2=O)C3)CC1)Cc1ccccc1` (stereo not drawn) [Compound 80, 3-(5-(1-(2-(benzyl(methyl)amino)ethyl)piperidin-4-yl)-6-fluoro-1-oxoisoindolin-2-yl)piperidine-2,6-dione] the same measures were 0.533 nM, at least 10000 nM and 85.1%.
On to `O=C1CCC(N2Cc3c(cc(F)c(C4(O)CCN(Cc5nc6ccccc6s5)CC4)c3F)C2=O)C(=O)N1` (stereo not drawn) [Compound 57, 3-(5-(1-(benzo[d]thiazol-2-ylmethyl)-4-hydroxypiperidin-4-yl)-4,6-difluoro-1-oxoisoindolin-2-yl)piperidine-2,6-dione], for which the DC50 is 101 nM in experiment [1] and at least 10000 nM on Helios. In addition, the Dmax in experiment [1] was determined as 63.2%.
As to `O=C1CCC(N2Cc3c(cc(F)c(C4CCN(Cc5ccc6ncsc6c5)CC4)c3F)C2=O)C(=O)N1` (stereo not drawn) [Compound 18, 3-(5-(1-(benzo[d]thiazol-6-ylmethyl)piperidin-4-yl)-4,6-difluoro-1-oxoisoindolin-2-yl) piperidine-2,6-dione], the DC50 in experiment [1] is 0.576 nM; on Helios it was at least 10000 nM. In addition, the Dmax in experiment [1] turned out to be 93.4%.
Take `O=C1CCC(N2Cc3c(cc(F)c(C4CCN(Cc5ncccc5Br)CC4)c3F)C2=O)C(=O)N1` (stereo not drawn) [Compound 50, 3-(5-(1-((3-bromopyridin-2-yl)methyl)piperidin-4-yl)-4,6-difluoro-1-oxoisoindolin-2-yl)piperidine-2,6-dione]: in experiment [1], the DC50 was 1.36 nM and the Dmax came to 88.4%. Besides, on Helios, the DC50 was at least 10000 nM.
Turning to `O=C1CCC(N2Cc3c(cc(F)c(C4CCN(CC5CCOC5)CC4)c3F)C2=O)C(=O)N1` (stereo not drawn) [Compound 7, 3-(4,6-difluoro-1-oxo-5-(1-((tetrahydrofuran-3-yl)methyl)piperidin-4-yl)isoindolin-2-yl)piperidine-2,6-dione], the DC50 is 0.265 nM in experiment [1] and at least 10000 nM at Helios. Also, the Dmax in experiment [1] was 86.2%.
As to `O=C1CCC(N2Cc3c(cc(F)c(C4CCN(Cc5ccncc5)CC4)c3F)C2=O)C(=O)N1` (stereo not drawn) [Compound 117, 3-(4,6-difluoro-1-oxo-5-(1-(pyridin-4-ylmethyl)piperidin-4-yl)isoindolin-2-yl)piperidine-2,6-dione], in experiment [1], the DC50 was 6.26 nM and the Dmax is 86.1%. Besides, on Helios, the DC50 is at least 10000 nM.
With `O=C1CCC(N2Cc3c(cc(F)c(C4(O)CCN(Cc5coc(-c6cccs6)n5)CC4)c3F)C2=O)C(=O)N1` (stereo not drawn) [Compound 14, 3-(4,6-difluoro-5-(4-hydroxy-1-((2-(thiophen-2-yl)oxazol-4-yl)methyl)piperidin-4-yl)-1-oxoisoindolin-2-yl)piperidine-2,6-dione], in experiment [1], the DC50 turned out to be 22.4 nM and the Dmax was 66.9%. In addition, at Helios, the DC50 was at least 10000 nM.
For `O=C1CCC(N2Cc3c(cc(F)c(C4CCN(CCC(F)(F)F)CC4)c3F)C2=O)C(=O)N1` (stereo not drawn) [Compound 114, 3-(4,6-difluoro-1-oxo-5-(1-(3,3,3-trifluoropropyl)piperidin-4-yl)isoindolin-2-yl)piperidine-2,6-dione] the same measures were 10.8 nM, 74.8% and at least 10000 nM.
With `CC(C)CN1CCC(c2c(F)cc3c(c2F)CN(C2CCC(=O)NC2=O)C3=O)CC1` (stereo not drawn) [Compound 95, 3-(4,6-difluoro-5-(1-isobutylpiperidin-4-yl)-1-oxoisoindolin-2-yl)piperidine-2,6-dione], in experiment [1], the DC50 was determined as 10.5 nM and the Dmax came out at 84.5%. The DC50 at Helios is at least 10000 nM.
